Test system: Smaller Tea Tortrix (Adoxophyes orana fosciota)
Assay: Insecticidal test on smaller tea tortrix, tea leaf dipping
Type: in vivo
Conditions: single agent 0.3 ppm, 4th instar larvae, 25° C.
Procedure: Insecticidal Test on Smaller Tea Tortrix (Adoxophyes orana fosciota)
Tea leaves were dipped in a solution of a chemical diluted to a prescribed concentration for 30 seconds. […] Four days and seven days after the treatment, the number of alive insects were counted, from which percentage of death was calculated.

Row | Compound | Death rate (%) After 4 days | Death rate (%) After 7 days
1 | Cc1cc(C(F)(F)C(F)(F)F)ccc1NC(=O)c1cccc(I)c1C(=O)NC(C)C [Compound 41] | 0% | 30%
2 | Cc1cc(C(F)(F)C(F)(F)C(F)(F)F)ccc1NC(=O)c1cccc(I)c1C(=O)NC(C)C [Compound 42] | 0% | 30%

Test system: Green Peach Aphid (Myzus persicae)
Assay: Insecticidal test on green peach aphid, spraying of Chinese cabbage, control value
Type: in vivo
Conditions: 100 ppm, single agent, 6 days after spraying

Row | Compound | Control degree (%)
3 | Cc1cc(C(F)(F)C(F)(F)F)ccc1NC(=O)c1cccc(I)c1C(=O)NC(C)C [Compound 41] | 0%
4 | Cc1cc(C(F)(F)C(F)(F)C(F)(F)F)ccc1NC(=O)c1cccc(I)c1C(=O)NC(C)C [Compound 42] | 0%

Test system: Brown Rice Planthopper (Nilaparvata lugens)
Assay: Insecticidal test on brown rice planthopper, rice seedling dipping
Type: in vivo
Conditions: 100 ppm, single agent, after 1 day
Source text: Insecticidal Test on Brown Rice Planthopper (Nilaparvata lugens)
Rice seedlings (variety: Nihombare) were dipped in a solution of an agent diluted to a predetermined concentration for 30 seconds. After air-dryness, each seedling was introduced into a glass-made test tube having a diameter of 1.8 cm and a height of 20 cm, and inoculated with ten 3rd inster nimphs of brown rice planthopper. Then, the test tube was stoppered with cotton. One day after and four days after the treatment, the number of alive insects was counted, based on which the insect death rate was calculated.

Row | Compound | Death rate (%) After 1 days
5 | Cc1cc(C(F)(F)C(F)(F)F)ccc1NC(=O)c1cccc(I)c1C(=O)NC(C)C [Compound 41] | 0%
6 | Cc1cc(C(F)(F)C(F)(F)C(F)(F)F)ccc1NC(=O)c1cccc(I)c1C(=O)NC(C)C [Compound 42] | 0%

Same assay, conditions: 100 ppm, single agent, after 5 days

Row | Compound | Death rate (%) After 5 days
7 | Cc1cc(C(F)(F)C(F)(F)F)ccc1NC(=O)c1cccc(I)c1C(=O)NC(C)C [Compound 41] | 0%
8 | Cc1cc(C(F)(F)C(F)(F)C(F)(F)F)ccc1NC(=O)c1cccc(I)c1C(=O)NC(C)C [Compound 42] | 0%

Test system: Rice Blast
Assay: not given
Conditions: in vivo

Row | Compound | Areal rate of disease spot (%) After 60 days
9 | Cc1cc(C(F)(F)C(F)(F)F)ccc1NC(=O)c1cccc(I)c1C(=O)NC(C)C [Compound 41] | 8.5%
10 | Cc1cc(C(F)(F)C(F)(F)C(F)(F)F)ccc1NC(=O)c1cccc(I)c1C(=O)NC(C)C [Compound 42] | 8.3%

Test system: Diamondback Moth (Plutella xyloxtella)
Assay: Control of diamondback moth on cabbage by soil treatment, number of parasitic insects
Type: in vivo
Conditions: 5 mg ai/hill, plant foot treatment, 21 days after transplanting
Procedure: (§1) Test for the Control of Diamondback Moth (Plutella xyloxtella) and Aphid on Cabbage by Soil Treatment
(§2) A granular preparation was mixed into bed soil, and the mixture was filled into a cell seedling box and sown with seeds of cabbage (variety: YR Seitoku). Otherwise, cell seedling planted cabbage was treated with the granular agent either by a treatment in the foliage leaf extraction period, or by a pre-transplanting treatment, or by a pricking-in hole treatment, or by a plant foot treatment after the planting. Twenty one days after the transplanting (in the middle of June), the number of parasitic insects was counted on 30 hills in the case of diamondback moth and on 10 hills in the case of aphid.

Row | Compound | Number of parasitic insects per 30 hills, Diamondback moth
11 | Cc1cc(C(F)(F)C(F)(F)F)ccc1NC(=O)c1cccc(I)c1C(=O)NC(C)C [Compound 41] | 2
12 | Cc1cc(C(F)(F)C(F)(F)C(F)(F)F)ccc1NC(=O)c1cccc(I)c1C(=O)NC(C)C [Compound 42] | 3

Same assay, conditions: 5 mg ai/hill, pre-transplanting treatment, 21 days after transplanting

Row | Compound | Number of parasitic insects per 30 hills, Diamondback moth
13 | Cc1cc(C(F)(F)C(F)(F)F)ccc1NC(=O)c1cccc(I)c1C(=O)NC(C)C [Compound 41] | 1
14 | Cc1cc(C(F)(F)C(F)(F)C(F)(F)F)ccc1NC(=O)c1cccc(I)c1C(=O)NC(C)C [Compound 42] | 3

Same assay, conditions: 5 mg ai/hill, pricking-in hole treatment, 21 days after transplanting

Row | Compound | Number of parasitic insects per 30 hills, Diamondback moth
15 | Cc1cc(C(F)(F)C(F)(F)F)ccc1NC(=O)c1cccc(I)c1C(=O)NC(C)C [Compound 41] | 2
16 | Cc1cc(C(F)(F)C(F)(F)C(F)(F)F)ccc1NC(=O)c1cccc(I)c1C(=O)NC(C)C [Compound 42] | 1

Same assay, conditions: 5 mg ai/hill, soil incorporation, 21 days after transplanting

Row | Compound | Number of parasitic insects per 30 hills, Diamondback moth
17 | Cc1cc(C(F)(F)C(F)(F)F)ccc1NC(=O)c1cccc(I)c1C(=O)NC(C)C [Compound 41] | 3
18 | Cc1cc(C(F)(F)C(F)(F)C(F)(F)F)ccc1NC(=O)c1cccc(I)c1C(=O)NC(C)C [Compound 42] | 3

Same assay, conditions: 5 mg ai/hill, true leaf extraction season treatment, 21 days after transplanting

Row | Compound | Number of parasitic insects per 30 hills, Diamondback moth
19 | Cc1cc(C(F)(F)C(F)(F)F)ccc1NC(=O)c1cccc(I)c1C(=O)NC(C)C [Compound 41] | 2
20 | Cc1cc(C(F)(F)C(F)(F)C(F)(F)F)ccc1NC(=O)c1cccc(I)c1C(=O)NC(C)C [Compound 42] | 2

Test system: Rice Water Weevil (Lissorhoptrus oryzophilus)
Assay: Control of rice water weevil on paddyfield rice by nursery box application, extent of injury
Type: in vivo
Conditions: 0.5 g ai/Box, single agent

Row | Compound | Extent of injury After 21 days
21 | Cc1cc(C(F)(F)C(F)(F)F)ccc1NC(=O)c1cccc(I)c1C(=O)NC(C)C [Compound 41] | 43.2
22 | Cc1cc(C(F)(F)C(F)(F)C(F)(F)F)ccc1NC(=O)c1cccc(I)c1C(=O)NC(C)C [Compound 42] | 39.5

Test system: Resistant Strain of Two-Spotted Spider Mite
Assay: not given
Conditions: 100 ppm, single agent, 2 days after spraying

Row | Compound | Death rate (%)
23 | Cc1cc(C(F)(F)C(F)(F)F)ccc1NC(=O)c1cccc(I)c1C(=O)NC(C)C [Compound 41] | 0%
24 | Cc1cc(C(F)(F)C(F)(F)C(F)(F)F)ccc1NC(=O)c1cccc(I)c1C(=O)NC(C)C [Compound 42] | 0%

Test system: Cutworm
Assay: Test for the effect against cutworm on beet, drench, number of injured hills per 100 hills
Type: in vivo
Conditions: 15 g ai/10a
Procedure: Test for the Effect Against Cutworm on Beet
Beet seedlings (variety: Monoace S) planted in a paper pot was treated with 3 L/m^2 of a solution of an agent diluted to a predetermined concentration, by the method of drench. Just after the drench, the plant was set. Predetermined days after the setting, the number of injured hills per 100 hills was counted.

Row | Compound | Number of injured hills per 100 hills, After 60 days | Number of injured hills per 100 hills, After 90 days | Number of injured hills per 100 hills, After 120 days
25 | Cc1cc(C(F)(F)C(F)(F)F)ccc1NC(=O)c1cccc(I)c1C(=O)NC(C)C [Compound 41] | 0 | 7 | 21
26 | Cc1cc(C(F)(F)C(F)(F)C(F)(F)F)ccc1NC(=O)c1cccc(I)c1C(=O)NC(C)C [Compound 42] | 0 | 8 | 22

Test system: Citrus Yellow Thrips (Frankliniella occidentalis)
Assay: Control of citrus yellow thrips on egg plant by combined use with natural enemy pesticide, number of thrips
Type: in vivo
Conditions: 100 ppm, spray

Row | Compound | Number of parasitic insects per 20 leaves, After 60 days | Number of parasitic insects per 20 leaves, After 90 days | Number of parasitic insects per 20 leaves, After 120 days
27 | Cc1cc(C(F)(F)C(F)(F)F)ccc1NC(=O)c1cccc(I)c1C(=O)NC(C)C [Compound 41] | 18 | 29 | 59
28 | Cc1cc(C(F)(F)C(F)(F)C(F)(F)F)ccc1NC(=O)c1cccc(I)c1C(=O)NC(C)C [Compound 42] | 19 | 25 | 50

Test system: Small Brown Planthopper (Laodelphax striatellus)
Assay: Control of small brown planthopper on paddyfield rice by nursery box application, number of parasitic insects
Type: in vivo
Conditions: 0.5 g ai/Box, single agent, after 40 days
Procedure: (§3) Test for the Control of Small Brown Planthopper (Laodelphax striatellus) and Rice Leafroller (Cnaphalocrosis medinalis) on Paddyfield Rice Plant by Nursery Box Application
(§4) Fifty grams of a granular preparation was applied to rice plant (variety: Nihombare) cultured in a nursery box, after which the rice plant was transplanted to the main paddy field (in the middle of May). The controlling effect against small brown planthopper was evaluated by investigating the number of parasitic insects on 30 hills per each plot, 40 days and 60 days after the transplantation. The controlling effect against rice leafroller was evaluated by investigating the number of injured leaves on 100 hills per each plot, 50 days after the transplantation.

Row | Compound | Number of parasitic planthoppers per 30 hills After 40 days
29 | Cc1cc(C(F)(F)C(F)(F)F)ccc1NC(=O)c1cccc(I)c1C(=O)NC(C)C [Compound 41] | 333
30 | Cc1cc(C(F)(F)C(F)(F)C(F)(F)F)ccc1NC(=O)c1cccc(I)c1C(=O)NC(C)C [Compound 42] | 345

Same assay, conditions: 0.5 g ai/Box, single agent, after 60 days

Row | Compound | Number of parasitic planthoppers per 30 hills After 60 days
31 | Cc1cc(C(F)(F)C(F)(F)F)ccc1NC(=O)c1cccc(I)c1C(=O)NC(C)C [Compound 41] | 385
32 | Cc1cc(C(F)(F)C(F)(F)C(F)(F)F)ccc1NC(=O)c1cccc(I)c1C(=O)NC(C)C [Compound 42] | 389

Test system: Rice Leafroller (Cnaphalocrosis medinalis)
Assay: Control of rice leafroller on paddyfield rice by nursery box application, number of injured leaves
Type: in vivo
Conditions: 0.5 g ai/Box, single agent
Procedure: as §3, §4

Row | Compound | Percentage of injured leaves (%) After 50 days
33 | Cc1cc(C(F)(F)C(F)(F)F)ccc1NC(=O)c1cccc(I)c1C(=O)NC(C)C [Compound 41] | 0.35%
34 | Cc1cc(C(F)(F)C(F)(F)C(F)(F)F)ccc1NC(=O)c1cccc(I)c1C(=O)NC(C)C [Compound 42] | 0.22%

Test system: Southern Root-Knot Nematode (Meloidogyne incognita)
Assay: Test for the effect on southern root-knot nematode, soil blending with granular preparation
Type: in vivo
Conditions: 300 g ai/10a, single agent, 60 days after treatment
Source text: Test for the Effect on Southern Root-Knot Nematode (Meloidogyne incognita)
Two killograms of a soil polluted with southern root-knot nematode was blended with a predetermined dose of a granular preparation. The mixture was filled into a 1/5,000 are Wagner pot. After sowing melon seeds and carrying out the treatment of the present invention, the pot was left to stand in a greenhouse. Sixty days after the treatment, 25 g of the soil was sampled out, the nematode was separated therefrom according to the method of Berman, and the numbers of nematodes were counted after 48 hours.
In the tables, “ai” means active ingredient.

Row | Compound | Number of nematodes per 25 g of soil sample
35 | Cc1cc(C(F)(F)C(F)(F)F)ccc1NC(=O)c1cccc(I)c1C(=O)NC(C)C [Compound 41] | 31
36 | Cc1cc(C(F)(F)C(F)(F)C(F)(F)F)ccc1NC(=O)c1cccc(I)c1C(=O)NC(C)C [Compound 42] | 28

Test system: Aphid
Assay: Control of aphid on cabbage by soil treatment, number of parasitic insects
Type: in vivo
Conditions: 5 mg ai/hill, plant foot treatment, 21 days after transplanting
Procedure: as §1
as §2, with “Twenty one days after the transplanting (in the middle of June), the number of parasitic insects was counted on 30 hills in the case of diamondback moth and on 10 hills in the case of aphid.” left out

Row | Compound | Number of parasitic insects per 30 hills, Aphid
37 | Cc1cc(C(F)(F)C(F)(F)F)ccc1NC(=O)c1cccc(I)c1C(=O)NC(C)C [Compound 41] | 456
38 | Cc1cc(C(F)(F)C(F)(F)C(F)(F)F)ccc1NC(=O)c1cccc(I)c1C(=O)NC(C)C [Compound 42] | 498

Same assay, conditions: 5 mg ai/hill, pre-transplanting treatment, 21 days after transplanting

Row | Compound | Number of parasitic insects per 30 hills, Aphid
39 | Cc1cc(C(F)(F)C(F)(F)F)ccc1NC(=O)c1cccc(I)c1C(=O)NC(C)C [Compound 41] | 458
40 | Cc1cc(C(F)(F)C(F)(F)C(F)(F)F)ccc1NC(=O)c1cccc(I)c1C(=O)NC(C)C [Compound 42] | 435

Same assay, conditions: 5 mg ai/hill, pricking-in hole treatment, 21 days after transplanting

Row | Compound | Number of parasitic insects per 30 hills, Aphid
41 | Cc1cc(C(F)(F)C(F)(F)F)ccc1NC(=O)c1cccc(I)c1C(=O)NC(C)C [Compound 41] | 511
42 | Cc1cc(C(F)(F)C(F)(F)C(F)(F)F)ccc1NC(=O)c1cccc(I)c1C(=O)NC(C)C [Compound 42] | 473

Same assay, conditions: 5 mg ai/hill, soil incorporation, 21 days after transplanting

Row | Compound | Number of parasitic insects per 30 hills, Aphid
43 | Cc1cc(C(F)(F)C(F)(F)F)ccc1NC(=O)c1cccc(I)c1C(=O)NC(C)C [Compound 41] | 457
44 | Cc1cc(C(F)(F)C(F)(F)C(F)(F)F)ccc1NC(=O)c1cccc(I)c1C(=O)NC(C)C [Compound 42] | 475

Same assay, conditions: 5 mg ai/hill, true leaf extraction season treatment, 21 days after transplanting

Row | Compound | Number of parasitic insects per 30 hills, Aphid
45 | Cc1cc(C(F)(F)C(F)(F)F)ccc1NC(=O)c1cccc(I)c1C(=O)NC(C)C [Compound 41] | 495
46 | Cc1cc(C(F)(F)C(F)(F)C(F)(F)F)ccc1NC(=O)c1cccc(I)c1C(=O)NC(C)C [Compound 42] | 485
